Results from article PMC4213378, “Pharmacokinetics and Efficacy of the Spleen Tyrosine Kinase Inhibitor R406 after Ocular Delivery for Retinoblastoma” (Pharmaceutical Research, 2014).

What was measured:
[1] = Plasma pharmacokinetics after oral or subconjunctival administration; format: in vivo, mouse; conditions: local (subconjunctival), mice
Protocol: For oral delivery of R788, the target dose of 25 mg/kg R788 was administered by oral gavage as a 4 mM solution in 0.01 N citrate buffer, pH 6 ([9]). For subconjunctival administration, R788 was prepared at a concentration of 4 mM in 2% PEG-800 and filtered through a 0.22 μm filter prior to use (see Table S1). R788 was also administered subconjunctivally as a suspension at a concentration of 25 mM in 10% 2-hydroxylpropyl-β-cyclodextrin (HPβCD, Sigma-Aldrich). For subconjunctival administration, R406 phenylsulfonate salt was administered at a concentration of 800–900 μM as a cosolvent solution in a formulation of 5% Cremaphor-eL, 0.5% ethanol, 0.2% Tween 80 and 94.3% PBS, filtered through a 0.22 μm filter prior to use (see Table S2). R406 phenylsulfonate salt was also administered subconjunctivally at a dose of 31.4 mM solution in DMSO. R406 free base was administered subconjunctivally at a concentration of 6.5 mM as a 25% castor oil (Sigma-Aldrich) emulsion. This emulsion was prepared by mixing castor oil: ethanol (1:1) solution of R406 (approx. 35 mM), in vacuo evaporation of the ethanol, and centrifugation to remove any excess R406, then emulsifying the R406 oil phase in an aqueous phase comprised of Cremaphor-eL, Tween 80 and PBS (final composition of the emulsion: 25% castor oil, 5% Cremaphor-eL, 0.2% Tween-80, 69.8% PBS) by probe sonication. For intravitreal injection, R788 solution was prepared by filtering a 0.12 mM (120 μM) solution of R788 in saline through a 0.22 μm filter. […] For topical delivery, 25–30 mM suspensions were prepared in 5% HPβCD. R406 or R788 concentration in all formulations was determined by UPLC prior to study (in cases where formulation was filtered before administration, concentration was determined post-filtering) Table I.
For the systemic delivery study R788 was administered as a single bolus dose (25 mg/kg, 10 mL/kg volume) by oral gavage. For the subconjunctival administration study R788 or R406 (10 µL of formulation) was injected into the subconjunctival space of an anesthetized mouse using a Hamilton microliter syringe (Hamilton company, Reno NV). For the intravitreal administration study, R788 (5 μL of […] in saline) was administered to each eye via direct injection. To perform the intravitreal injection, mice were anesthetized, a small incision between the sclera and the cornea was created with a […] needle, and the R788 was injected into the vitreous using a Hamilton microliter syringe. For the topical administration study, R406 (2 μL of 25–30 mM suspension) was applied as a drop to the surface of each eye of an anesthetized mouse.
At serial time points (0.5, 1, 2, 4, and 8 h post-injection, n = 3 for each time point), blood was collected by terminal cardiac puncture after isoflurane anesthesia. Whole-blood samples were centrifuged immediately at 10,000×g for 5 min at 4°C to separate plasma. Once the cardiac puncture and blood collection was completed, the animal was perfused with 10 mL of saline and euthanized by cervical dislocation. Eyes were removed, rinsed in PBS, gently patted dry, then rinsed and dried again. Eyes were dissected and vitreous was collected. Plasma and vitreous samples were put on dry ice immediately after collection and stored at −80°C until analysis. For quantitative analysis methods and assay validation methods and results, see Supplementary Information.
Plasma and vitreous concentration time data were analyzed using non-compartmental analysis in WinNonlin 6.2 (Pharsight, Mountain View, CA), providing PK parameters including Cmax (maximum observed concentration), Tmax (time to reach maximum observed concentration), AUC (area under the concentration time curve) and MRT (mean residence time). AUC and AUMC (area under the concentration time first moment curve) values were estimated with the linear trapezoidal method, with parameters calculated using mean concentration values at each time point. […]

[2] = system: SJ-39 retinoblastoma cells; assay: Efficacy in human orthotopic xenograft mouse model of retinoblastoma (event-free survival); format: in vivo
Protocol: Preclinical testing was carried out in human orthotopic xenograft mice using the methods previously described ([10], [11]). SJ-39 retinoblastoma cells were injected into the vitreous of 30 immunocompromised mice (J:NU, The Jackson Laboratory (Bar Harbor, ME, USA)): 10 were untreated and 20 received subconjunctival injections of R406 in solution formulation (R406^oc) and systemic topotecan (TPT^syst) combination therapy administered over a 5-day course every third week as follows: 10 μL R406 per eye at a concentration of […] (8–9 nanomoles/eye) on day 1, and TPT^syst (0.7 mg/kg per dose, i.p.) on days 1 to 5 (see Fig. 1a). Mice were scheduled to receive six courses of therapy (18 weeks total). Before each course of therapy, mice were examined and intraocular pressure (IOP) was read as previously described ([10], [11]). If intraocular pressure was elevated above normal (IOP > 20) or eye rupture was observed, mice were taken off study and time to event was recorded. At the completion of the study event-free survival (EFS) was analyzed for the R406^oc/TPT^syst treated and untreated groups.
Since R406 is the SYK inhibitor farthest along in clinical development (Phase 3), and therefore the most likely compound to be tested clinically against retinoblastoma, we decided to focus upon its evaluation. In order to test the efficacy of R406 in vivo, we developed a solution formulation using FDA approved adjuvants for ophthalmic applications ([11]). The maximum concentration of R406 in solution was approximately 900 μM and R406 was chemically stable in formulation for 48 h at room temperature (Table S3 and Fig. S2). Next, we performed in vivo efficacy studies using the solution formulation of R406 in combination with systemic topotecan (standard for our preclinical evaluation of new retinoblastoma agents ([11]) following a clinically relevant dose and schedule as was previously done for nutlin-3a and BAY-61-3606 ([6], [11]). SJ-39 retinoblastoma cells were injected into the vitreous of 30 immunocompromised mice and animals were randomized into two treatment groups: 20 received subconjunctival injections of R406 in solution formulation (R406^oc) and systemic topotecan (TPT^syst) combination therapy administered over a 5-day course every third week (see Fig. 1a) and 10 were untreated. Animals were scheduled to receive 6 courses of treatment (18 weeks total), but no animal completed the entire 6 courses. All animals were taken off study by 63 days due to elevated intraocular pressure (IOP > 20) or eye rupture. Event free survival (EFS) was analyzed for the two groups (Fig. 1b). […]

[3] = co-solvent solution 0.88 mM, 8.8 nmol per eye

SMILES | Cmax ([1]; DMSO 31.4 mM, 314 nmol per eye) | Plasma AUClast ([1]; DMSO 31.4 mM, 314 nmol per eye) | Plasma Dose normalized AUC ([1]; DMSO 31.4 mM, 314 nmol per eye) | Plasma Tlast ([1]; DMSO 31.4 mM, 314 nmol per eye) | Plasma Tmax ([1]; DMSO 31.4 mM, 314 nmol per eye) | Cmax [1, 3] | Plasma AUClast [1, 3] | Plasma Dose normalized AUC [1, 3] | Plasma Tlast [1, 3] | Plasma Tmax [1, 3] | proportion of event free survivals at 21 days ([2]; subconjunctival R406 solution 8–9 nmol/eye day 1 + systemic topotecan 0.7 mg/kg i.p. days 1-5, every third week, n=20, untreated 50%) | time by which all animals were taken off study (IOP > 20 or eye rupture) ([2]; subconjunctival R406 solution + systemic topotecan) | proportion of event free survivals at 42 days ([2]; subconjunctival R406 solution + systemic topotecan, untreated 0%) | Median event free survival ([2]; subconjunctival R406 solution + systemic topotecan, untreated 32.5 days, log-rank p = 0.005)
COc1cc(Nc2ncc(F)c(Nc3ccc4c(n3)NC(=O)C(C)(C)O4)n2)cc(OC)c1OC.O=S(=O)(O)c1ccccc1 [R406 phenylsulfonate salt] | 370 nM | 0.298 µM·h | 0.5 nM∙h/nmol | 4 h | 30 min | 79 nM | 0.0429 µM·h | 2.4 nM∙h/nmol | 1 h | 30 min | – | – | – | –
COc1cc(Nc2ncc(F)c(Nc3ccc4c(n3)NC(=O)C(C)(C)O4)n2)cc(OC)c1OC [R406] | – | – | – | – | – | – | – | – | – | – | 90% | ≤ 63 days | 30% | 42 days
